Consider ten compounds from patent US11401278B2, “Macrocyclic indole derivatives” (The Broad Institute, Inc., priority 2017, dated 2022).

Data set [1] concerns SUDHL5. Kind of data set: Induction of cytotoxicity (Assay 6), SUDHL5. The note with it: read-out: Cytotox SUDHL5 [M] (median) IC50, CellTiter-Glo, 5 hours, SUDHL5.
Data set [2] has as its system SUDHL5. Kind of data set: Antiproliferation assay (Assay 7), SUDHL5. The data set is classed as cell-based. The note with it: CellTiter-Glo, median, read-out: Antiproli SUDHL5 [M] (median) IC50. The procedure, abridged:
(§1)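 Luminescent ATP-based viability (CellTiter-Glo) measured after 72 hours of compound treatment at 37° C, alongside a time-zero plate read on the day of plating.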
(In general: ATP-based viability assays read luminescence as a measure of living cells.)

A further data set addresses BCL-2 (Homo sapiens (Human), UniProt P10415). The data set is described as follows: Protein-protein interaction assay BCL-2/Bad BH3 peptide (BCL-2 assay, TR-FRET). The data set is classed as binding. The note with it: His-BCL-2 / Bad BH3 peptide, median. How it is done:
Assay 3 Protein-Protein Interaction Assay: BCL-2/Bad BH3 Peptide (BCL-2 Assay)
The dose-dependent inhibition by the compounds described in this invention of the interaction between BCL-2 and the BH3 domain of Bad (both human) was determined using a steady state binding competition assay with time-resolved fluorescence energy transfer (TR-FRET) readout. For that purpose BCL-2 (amino acids 1-211, C-terminal fused to a hexahistidine (6×His) tag (SEQ ID 5) and a synthetic Bad BH3-derived peptide of sequence Biotin-PEG2-PEG2-NLWAAQRYGRELRR-Nle-SDEFVDSFKK-amide (SEQ ID 4) served as protein receptor and tracer ligand respectively. The recombinant BCL-2 protein (expressed in E. coli) was purchased from BPS Bioscience (San Diego, Calif., USA). The Bad BH3-derived peptide can be obtained from e.g. Biosyntan (Berlin, Germany).
In the assay 11 different concentrations of each compound (0.1 nM, 0.33 nM, 1.1 nM, 3.8 nM, 13 nM, 44 nM, 0.15 μM, 0.51 μM, 1.7 μM, 5.9 μM and 20 μM) were typically measured as duplicates in the same microtiter plate. For that, 100-fold concentrated DMSO solutions were prepared by serial dilutions (1:3.4) of a 2 mM stock solution in a clear, 384-well microtiter plate (Greiner Bio-One, Frickenhausen, Germany). From there, 50 nl were transferred in a dark test plate (Greiner Bio-One, Frickenhausen, Germany). The assay was initiated by addition of 2 μl of a 2.5-fold concentrated His-BCL-2 solution (usually for a 1 nM end concentration in 5 μl reaction volume) in aqueous assay buffer [50 mM Tris/HCl pH 7, 100 mM sodium chloride (NaCl), 50 mM potassium fluoride (KF), 0.005% Tween-20, 2 mM DTT, 0.1% bovine gamma globulin (BGG)] to the compounds in the assay plate. This was followed by a 10-minute incubation step at 22° C. for pre-equilibration of the putative complex between His-BCL-2 and the compounds. After that, 3 μl of a 1.67-fold concentrated solution (in assay buffer) consisting of Bad BH3-derived peptide (1 nM end concentration) and TR-FRET detection reagents [1.67 nM anti-His-Eu cryptate and 1.67 nM streptavidin-XL665 (both from Cisbio Bioassays, Codolet, France)], were added.
The mixture was incubated in the dark for one hour at 22° C. and then overnight at 4° C. The formation of BCL-2/Bad complexes was determined by measuring the resonance energy transfer of the anti-His-Eu-cryptate antibody to the streptavidin-XL665 present in the reaction. For that purpose, the fluorescence emission at 620 nm and 665 nm after excitation at 330-350 nm was measured in a TR-FRET measuring instrument, for instance a Rubystar or a Pherastar (both from BMG Lab Technologies, Offenburg, Germany) or a Viewlux (Perkin-Elmer). The ratio of the emission at 665 nm and at 622 nm was used as indicator of the amount of BCL-2/Bad complexes present.
The resulting data (ratio) were normalized, taking 0% inhibition as the mean value of control measurements (usually 32 data points) where all reagents were included. In this case 50 nl DMSO were used instead of compounds. A 100% inhibition corresponded to the mean value of control measurements (usually 32 data points) where all reagents except BCL-2 were included. IC50 values were determined by regression analysis based on a 4 parameter equation (minimum, maximum, IC50, Hill; Y=Max+(Min−Max)/(1+(X/IC50)^HiII) using the Screener Software (Genedata).

The subject of the next data set is AMO-1. The data set is described as follows: Antiproliferation assay (Assay 7), AMO-1. As to conditions: CellTiter-Glo, 72 hours, several values per example. The data set is classed as cell-based. The procedure, abridged:
as §1

Where [3] appears, read: read-out: Antiproli AMO-1 [M] IC50.

The structures appear in SMILES notation. Where “and” joins values, the source holds several entries; their conditions need not be identical. Identical values can stand only once. Counter-ions that a name gives are not always drawn. Like-named read-outs stand apart in the source and are kept apart here. Bounds are passed on as bounds.

Sequence of BCL-2 (P10415 other isoform, or with tags, fused parts or gaps): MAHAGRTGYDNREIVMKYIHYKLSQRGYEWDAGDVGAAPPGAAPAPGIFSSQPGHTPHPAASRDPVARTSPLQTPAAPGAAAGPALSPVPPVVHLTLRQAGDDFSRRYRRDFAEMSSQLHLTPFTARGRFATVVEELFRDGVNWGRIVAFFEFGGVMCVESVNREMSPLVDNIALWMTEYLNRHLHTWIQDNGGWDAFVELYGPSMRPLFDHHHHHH

As usually defined, the IC50 is the concentration at which inhibition is half-maximal. As for `CCc1c2c(nn1C)CN(CCN1CCOCC1)S(=O)(=O)CCCn1c(C(=O)O)c(CCCOc3cccc4cc(F)ccc34)c3ccc(Cl)c-2c31` [Example 77, (rac)-13-chloro-12-ethyl-1-(3-((6-fluoronaphthalen-1-yl)oxy)propyl)-11-methyl-8-(2-morpholinoethyl)-5,6,9,11-tetrahydro-4H,8H-pyrazolo[3′,4′:4,5][1]thia[2,8]diazacycloundecino[6,7,8-hi]indole-2-carboxylic acid 7,7-dioxide], the half-maximal inhibitory concentration (IC50) in the data set with SUDHL5 [1] (Homo sapiens, SU-DHL-5, 5 h) was 6.7e-06 M; in the data set with SUDHL5 [2] (Homo sapiens, SU-DHL-5, 72 h), 7.2e-06 M; against BCL-2, greater than 20000 nM.

As to `Cc1c2c(nn1C)C(CCN1CCOCC1)N(C)S(=O)(=O)CCCn1c(C(=O)O)c(CCCOc3cccc4ccccc34)c3cccc-2c31` (single isomer, unassigned; enantiomer 2) [Example 46, 2,3,14-trimethyl-15-[2-(morpholin-4-yl)ethyl]-7-{3-[(naphthalen-1-yl)oxy]propyl}-13,13-dioxo-10,11,12,13,14,15-hexahydro-2H-13lambda^6-pyrazolo[3′,4′:4,5][1,2,8]thiadiazacycloundecino[6,7,8-hi]indole-8-carboxylic acid N-ethylethanamine Salt (Enantiomer 2)], the IC50 with SUDHL5 [1] was 5e-07 M; in the data set with AMO-1 (setting [3]), 5.3e-07 M and 5e-07 M; with SUDHL5 [2] (72 hours), 3e-07 M.

Take `COc1ccc(CN2Cc3nn(C)c(C)c3-c3c(Cl)ccc4c(CCCOc5cccc6cc(F)ccc56)c(C(=O)O)n(c34)CCCS2(=O)=O)c(OC)c1` (racemic) [Example 49, (rac)-4-chloro-14-(2,4-dimethoxybenzyl)-7-{3-[(6-fluoro-1-naphthyl)oxy]propyl}-2,3-dimethyl-11,12,14,15-tetrahydro-2H,10H-pyrazolo[3′,4′:4,5][1,2,8]thiadiazacycloundecino[6,7,8-hi]indole-8-carboxylic acid 13,13-dioxide]: the IC50 came out at 1.8e-07 M with SUDHL5 [1] (Homo sapiens, SU-DHL-5, 5 h); 8.5e-07 M in the data set with SUDHL5 [2] (Homo sapiens, SU-DHL-5, 72 h); 20000 nM on BCL-2.

With `CCc1c2c(nn1C)C(CCN1CCOCC1)N(C)S(=O)(=O)CCCn1c(C(=O)O)c(CCCOc3cccc4cc(F)ccc34)c3ccc(Cl)c-2c31` (racemic) [Example 73, (rac)-(4-chloro-3-ethyl-7-{3-[(6-fluoronaphthalen-1-yl)oxy]propyl}-2,14-dimethyl-15-[2-(morpholin-4-yl)ethyl]-13,13-dioxo-10,11,12,13,14,15-hexahydro-2H-13lambda^6-pyrazolo[3′,4′:4,5][1,2,8]thiadiazacycloundecino[6,7,8-hi]indole-8-carboxylic acid (Racemate 1)], the IC50 in the data set with AMO-1 (setting [3]) was 2.6e-08 M and 2.5e-08 M; in the data set on SUDHL5 [2] (72 hours), 1.5e-08 M.

Take `CCc1c2c(nn1C)C(CCC1CCOCC1)N(C)S(=O)(=O)CCCn1c(C(=O)O)c(CCCOc3cccc4cc(F)ccc34)c3ccc(Cl)c-2c31` (racemic) [Example 60, (rac)-4-chloro-3-ethyl-7-{3-[(6-fluoro-1-naphthyl)oxy]propyl}-2,14-dimethyl-15-[2-(tetrahydro-2H-pyran-4-yl)ethyl]-11,12,14,15-tetrahydro-2H,10H-pyrazolo[3′,4′:4,5][1,2,8]thiadiazacycloundecino[6,7,8-hi]indole-8-carboxylic acid 13,13-dioxide (Racemate 1)]: the IC50 was 2.8e-08 M with SUDHL5 [1], 4.4e-08 M in the data set with AMO-1 (setting [3]) and 1.8e-08 M with SUDHL5 [2] (72 hours).

Consider `Cc1c2c(nn1C)CN(CCN1CCOCC1)S(=O)(=O)CCCn1c(C(=O)O)c(CCCOc3cccc4ccccc34)c3cccc-2c31` (single isomer, unassigned; enantiomer 2) [Example 3, 2,3-Dimethyl-14-[2-(morpholin-4-yl)ethyl]-7-{3-[(naphthalen-1-yl)oxy]propyl}-13,13-dioxo-10,11,12,13,14,15-hexahydro-2H-13λ^6-pyrazolo[3′,4′:4,5][1,2,8]thiadiazacycloundecino-[6,7,8-hi]indole-8-carboxylic acid-N-ethylethanamine salt (Enantiomer 2)], for which the values for the IC50 with SUDHL5 [1], in the data set on SUDHL5 [2] (72 hours) and against BCL-2 were greater than 3.3e-05 M, 1.5e-05 M and greater than 20000 nM, respectively.

As for `Cc1c2c(nn1C)CNS(=O)(=O)CCCn1c(C(=O)O)c(CCCOc3cccc4cc(F)ccc34)c3ccc(Cl)c-2c31` (racemic) [Example 50, (rac)-4-chloro-7-{3-[(6-fluoro-1-naphthyl)oxy]propyl}-2,3-dimethyl-11,12,14,15-tetrahydro-2H,10H-pyrazolo[3′,4′:4,5][1,2,8]thiadiazacycloundecino[6,7,8-hi]indole-8-carboxylic acid 13,13-dioxide], the IC50 in the data set on SUDHL5 [1] (Homo sapiens, SU-DHL-5, 5 h) is 1.4e-06 M; in the data set on SUDHL5 [2] (Homo sapiens, SU-DHL-5, 72 h) it was 2e-06 M; against BCL-2, greater than 20000 nM.

For `Cc1c2c(nn1C)CN(C)S(=O)(=O)CCCn1c(C(=O)O)c(CCCOc3cccc4ccccc34)c3ccc(Cl)c-2c31` (single isomer, unassigned; enantiomer 1) [Example 5, 4-Chloro-2,3,14-trimethyl-7-{3-[(naphthalen-1-yl)oxy]propyl}-13,13-dioxo-10,11,12,13,14,15-hexahydro-2H-13λ^6-pyrazolo[3′,4′:4,5][1,2,8]thiadiazacycloundecino[6,7,8-hi]indole-8-carboxylic acid-N-ethylethanamine salt (Enantiomer 1)], the IC50 in the data set with SUDHL5 [1] was 4.9e-07 M; in the data set with AMO-1 (listed as 05, read-out: Antiproli AMO-1 [M] IC50) it was 1.5e-06 M; in the data set with SUDHL5 [2] (72 hours), 5.1e-07 M.

Turning to `Cc1c2c(nn1C)CNS(=O)(=O)CCCn1c(C(=O)O)c(CCCOc3cccc4cc(F)ccc34)c3ccc(Cl)c-2c31` (single isomer, unassigned; enantiomer 1) [Example 51, 4-chloro-7-{3-[(6-fluoronaphthalen-1-yl)oxy]propyl}-2,3-dimethyl-13,13-dioxo-10,11,12,13,14,15-hexahydro-2H-13lambda^6-pyrazolo[3′,4′:4,5][1,2,8]thiadiazacycloundecino[6,7,8-hi]indole-8-carboxylic acid (Enantiomer 1)], the IC50 in the data set with SUDHL5 [1] is 5e-07 M; in the data set with SUDHL5 [2] (72 hours) it was 4.1e-07 M; against BCL-2, greater than 20000 nM.

On to `Cc1c2c(nn1C)C(CCN1CCOCC1)N(C)S(=O)(=O)CCCn1c(C(=O)O)c(CCCOc3cccc4cc(F)ccc34)c3ccc(Cl)c-2c31` (racemic) [Example 48, (rac)-4-chloro-7-{3-[(6-fluoro-1-naphthyl)oxy]propyl}-2,3,14-trimethyl-15-(rac)-[2-(morpholin-4-yl)ethyl]-11,12,14,15-tetrahydro-2H,10H-pyrazolo[3′,4′:4,5][1,2,8]thiadiazacycloundecino[6,7,8-hi]indole-8-carboxylic acid 13,13-dioxide (Mixture of Stereoisomers)], for which the IC50 is 1.4e-08 M in the data set on SUDHL5 [1]; 3.1e-08 M with SUDHL5 [2] (Homo sapiens, SU-DHL-5, 72 h); greater than 20000 nM on BCL-2.
